Reference: US20090215807A1, “Novel Diazaspiroalkanes and Their Use for Treatment of CCR8 Mediated Diseases” (priority 2005, published 2009)

Assays:
[1] = target: T1, human recombinant chemokine CCR8 receptor (Homo sapiens, UniProt P51685); test: CCL1 SPA binding assay; conditions: inhibition of 125I CCL1 binding to CCR8 membranes from transfected CHO-K1 cells
T1 construct: purchased Euroscreen ES-136-M; host or cells: CHO-K1 cells (membranes)
Protocol: 1 μl of DMSO was added to the blank control wells and 1 μl unlabeled CCL1 (300 nM) was added to background control wells. 50 μl of the SPA bead-membrane mixture was added into each well. […] Plates were then incubated at RT with shaking (700 rpm) for 90 minutes followed by 30 minutes at RT without shaking. The plate was read in a Wallac MicroBeta counter for 2 minutes/well.

[2] = Human microsomal stability assay; type: in vitro ADME; conditions: human microsomes (Xenotech); human microsomes 1 mg protein/mL, compound 2.5 μM, NADPH 2 mM, pH 7.4, 37° C.; read-out: Intrinsic clearance
Protocol: Human Microsomal Stability Assay
Samples at four time-points (0, 5, 15 and 30 minutes) are withdrawn and the enzymatic reaction is terminated by protein precipitation with 1% acetic acid in acetonitrile. The incubations are performed on a thermostated plate (37° C.) placed on a Tecan worktable, and all liquid handling was performed robotically. After centrifugation of the samples, the supernatants are pooled in sets of four before they are analysed by liquid chromatography with tandem mass spectrometry detection (LC/MS/MS) using multiple reaction monitoring (MRM). Data are presented as intrinsic Clearance (CLint), μl/min/mg protein, calculated from the initial linear part of the compound disappearance curve.

T1 sequence (P51685 whole entry): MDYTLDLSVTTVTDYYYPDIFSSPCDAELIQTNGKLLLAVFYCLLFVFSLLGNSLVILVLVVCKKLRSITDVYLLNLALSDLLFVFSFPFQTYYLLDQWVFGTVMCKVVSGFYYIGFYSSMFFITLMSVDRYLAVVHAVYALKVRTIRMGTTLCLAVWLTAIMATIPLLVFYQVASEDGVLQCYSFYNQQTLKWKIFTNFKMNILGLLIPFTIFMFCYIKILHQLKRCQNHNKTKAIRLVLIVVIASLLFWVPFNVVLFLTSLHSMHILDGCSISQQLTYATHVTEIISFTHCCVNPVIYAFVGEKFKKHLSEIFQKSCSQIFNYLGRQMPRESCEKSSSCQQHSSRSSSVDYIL

Structure (SMILES) | IC50 [1] [nM] | microsomal CLint at 2.5 μM [2] [µL/min/mg]
COc1ccccc1Oc1ccccc1CN1CCC2(CC1)CCN(C(=O)c1cc[n+]([O-])cc1)CC2 [Example 4, 3-[2-(2-methoxyphenoxy)benzyl]-9-(1-oxidoisonicotinoyl)-3,9-diazaspiro[5.5]undecane] | 117 | < 10
COc1ccccc1Oc1ccccc1CN1CCC2(CC1)CCN(C(=O)c1ccncc1)CC2 [X, 3-isonicotinoyl-9-[2-(2-methoxyphenoxy)benzyl]-3,9-diazaspiro[5.5]undecane, reference compound] |  | 89
COc1ccccc1Oc1ccccc1CN1CCC2(CC1)CCN(C(=O)c1cccc[n+]1[O-])CC2 [Example 3, 3-[2-(2-methoxyphenoxy)benzyl]-9-[(1-oxidopyridin-2-yl)carbonyl]-3,9-diazaspiro[5.5]undecane] | 87 | < 10
COc1ccccc1Oc1ccccc1CN1CCC2(CC1)CCN(C(=O)c1ccc[n+]([O-])c1)CC2 [Example 5, 3-[2-(2-methoxyphenoxy)benzyl]-9-[(1-oxidopyridin-3-yl)carbonyl]-3,9-diazaspiro[5.5]undecane] | 268 | < 10
CC(C)COc1ccccc1CN1CCC2(CC1)CCN(C(=O)c1cc[n+]([O-])cc1)CC2 [A, 3-(2-isobutoxybenzyl)-9-(1-oxidoisonicotinoyl)-3,9-diazaspiro[5.5]undecane, reference compound] | 2670 | 
COc1ccccc1Oc1cccc(CN2CCC3(CC2)CCN(C(=O)c2ccc[n+]([O-])c2)CC3)c1 [Example 8, 3-[3-(2-methoxyphenoxy)benzyl]-9-[(1-oxidopyridin-3-yl)carbonyl]-3,9-diazaspiro[5.5]undecane] | 207 | < 10
O=C(c1cc[n+]([O-])cc1)N1CCC2(CCN(Cc3cccc(Oc4ccccc4)c3)CC2)CC1 [Example 2, 3-(1-oxidoisonicotinoyl)-9-(3-phenoxybenzyl)-3,9-diazaspiro[5.5]undecane] | 305 | < 10
O=C(c1cccc[n+]1[O-])N1CCC2(CCN(Cc3cccc(Oc4ccccc4)c3)CC2)CC1 [Example 1, 3-[(1-oxidopyridin-2-yl)carbonyl]-9-(3-phenoxybenzyl)-3,9-diazaspiro[5.5]undecane] | 193 | < 10
COc1ccccc1Oc1cccc(CN2CCC3(CC2)CCN(C(=O)c2ccncc2)CC3)c1 [Y, 3-isonicotinoyl-9-[3-(2-methoxyphenoxy)benzyl]-3,9-diazaspiro[5,5]undecane, reference compound] |  | 183
CC(C)COc1ccccc1CN1CCC2(CC1)CCN(C(=O)c1ccc[n+]([O-])c1)CC2 [B, 3-(2-isobutoxybenzyl)-9-[(1-oxidopyridin-3-yl)carbonyl]-3,9-diazaspiro[5.5]undecane, reference compound] | 3050 | 
